Laboratory results reported in publication PMC9606955, “In Vitro Activity of Essential Oils Distilled from Colombian Plants against Candida auris and Other Candida Species with Different Antifungal Susceptibility Profiles” (Molecules, 2022).
≈ marks a conversion by molar mass, not a printed value.

Columns and labels:
[1] = tested on: C. orthopsilosis MUM 17.13; assay: MIC, CLSI M27 broth microdilution; assay type: cell-based, Candida orthopsilosis; settings: C. orthopsilosis MUM 17.13, antifungal drugs; for MIC: Lodderomyces orthopsilosis, MUM17.13, geometric mean, read-out: MIC GM
How it was run: (§1)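 Endpoint: visible growth inhibition versus control, read by eye after 24 h incubation at 35 °C. Broth microdilution in RPMI 1640-MOPS, 2.5 × 10^3 CFU/mL inoculum, compounds tested from 0.5 up to 256 µg/mL final. Reported as geometric mean and range.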

[2] = tested on: C. albicans ATCC 10231, C. tropicalis ATCC 200956, and C. auris CDC B11903; assay: Time–kill assay, control drugs; assay type: cell-based, Candida spp.; settings: fungicidal and fungistatic control drugs
Description: Time–kill assays with the L. origanoides (thymol + p-cymene) chemotype (Code 0018) EO, thymol, FLC, and AMB against C. albicans ATCC 10231, C. tropicalis ATCC 200956, and C. auris CDC B11903 were performed according to the protocol published by Klebser et al. with some modifications. […] Absorbance at λ = 490 nm was measured every 2 h with a Multiskan SkyHigh Microplate Spectrophotometer. AMB and FLC were included as fungicidal and fungistatic control drugs, respectively.

C. lusitaniae MUM 17.08 = assay: MIC, CLSI M27 broth microdilution; assay type: cell-based, Candida lusitaniae; settings: C. lusitaniae MUM 17.08, antifungal drugs; for MIC: Clavispora lusitaniae, MUM17.08, geometric mean, read-out: MIC GM
How it was run: as §1

C. albicans ATCC 10231 = assay: MIC, CLSI M27 broth microdilution; assay type: cell-based, Candida albicans; settings: antifungal drugs; for MIC: Candida albicans, ATCC10231, geometric mean
From the text: The fungal strains used in this study were C. albicans ATCC 10231, C. albicans ATCC 64550, C. parapsilosis ATCC 22019, C. tropicalis ATCC 750, C. tropicalis ATCC 200956 (resistant to azoles and AMB), C. glabrata LMDM 34 (resistant to echinocandins), C. metapsilosis MUM 15.12, C. orthopsilosis MUM 17.13, C. lusitaniae MUM 17.08, C. krusei ATCC 6258 (Issatchenkia orientalis ATCC 6258), and C. auris CDC B11903. Additionally, nine clinical isolates were included: C. parapsilosis Synlab 406 (FLC-resistant) and eight C. auris isolates identified by MALDI-TOF MS (Bruker Daltonics, Bremen, Germany) according to Zhao et al.. These yeasts were cultured on Sabouraud Dextrose Agar (SDA; Sigma-Aldrich, St. Louis, MO, USA) for 24 h at 35 °C.
Antifungal susceptibility testing was performed according to Clinical and Laboratory Standards Institute M27, 4th Edition (CLSI standard M27, 4th Edition). Some modifications were applied for evaluation of the antifungal activity of EOs and terpenes. Initially, a screening was carried out to determine the antifungal activity of the EOs and of commercial terpenes. Stock concentrations of EOs and terpenes were prepared at 512 µg/mL and an inoculum of 2.5 × 10^3 CFU/mL of each yeast was prepared in RPMI 1640-MOPS (Sigma- Aldrich St. Louis, MO, USA). Thereafter, 100 µL of each stock solution of EOs or terpenes was dispensed in 96-well microdilution plates (Corning®, Costar®, NY, USA) and 100 µL of each yeast inoculum was added. […] Microdilution plates were incubated at 35 °C and, after 24 h, the presence or absence of growth was visually checked using a manual mirror viewer and then compared with the amount of growth in the control (no EO or terpene). Compounds able to inhibit yeast growth were tested to determine the minimal inhibitory concentration (MIC) as follows: 100 µL of 10 two-fold dilutions of the EOs or commercial terpenes was dispensed in 96-well microplates and the yeast inoculum was added. Final concentrations of the EOs or terpenes ranged from 0.5 µg/mL to 256 µg/mL. Microdilution plates were incubated at 35 °C for 24 h. MICs were visually determined at the lowest concentration that produced visual inhibition compared to the growth control. The assays were performed at least three times in duplicate on different days. The results were expressed as geometric means (GM) and ranges. As an antifungal susceptibility testing control, the activity of ITC and AMB against the reference strains C. krusei ATCC 6258 and C. parapsilosis ATCC 22019 was evaluated in all experiments following the CLSI standard M27, 4th Edition. It was mandatory that the MIC values remained in the accepted range.

C. auris Ca 32 = assay: MIC, CLSI M27 broth microdilution; assay type: cell-based, Candida auris; settings: C. auris Ca 32, antifungal drugs; for MIC: Candidozyma auris, CA32, geometric mean, read-out: MIC GM
How it was run: as §1

C. auris Ca 46 = assay: MIC, CLSI M27 broth microdilution; assay type: cell-based, Candida auris; settings: C. auris Ca 46; for MIC Range / MIC: antifungal drugs; for MIC: Candidozyma auris, CA46, geometric mean, read-out: MIC GM
How it was run: as §1

C. auris CDC B11903 = assay: MIC, CLSI M27 broth microdilution; assay type: cell-based, Candida auris; settings: C. auris CDCB11903, antifungal drugs; for MIC: Candidozyma auris, geometric mean, read-out: MIC GM
How it was run: as §1

C. auris Ca 17 = assay: MIC, CLSI M27 broth microdilution; assay type: cell-based, Candida auris; settings: C. auris Ca 17; for MIC Range / MIC: antifungal drugs; for MIC: Candidozyma auris, CA17, geometric mean, read-out: MIC GM
How it was run: as §1

C. auris Ca 9 = assay: MIC, CLSI M27 broth microdilution; assay type: cell-based, Candida auris; settings: C. auris Ca 9, antifungal drugs; for MIC: Candidozyma auris, CA9, geometric mean, read-out: MIC GM
How it was run: as §1

C. auris Ca 41 = assay: MIC, CLSI M27 broth microdilution; assay type: cell-based, Candida auris; settings: C. auris Ca 41; for MIC Range / MIC: antifungal drugs; for MIC: Candidozyma auris, CA41, geometric mean, read-out: MIC GM
How it was run: as §1

C. auris Ca 1 = assay: MIC, CLSI M27 broth microdilution; assay type: cell-based, Candida auris; settings: C. auris Ca 1, antifungal drugs; for MIC: Candidozyma auris, CA1, geometric mean, read-out: MIC GM
How it was run: as §1

C. auris Ca 10 = assay: MIC, CLSI M27 broth microdilution; assay type: cell-based, Candida auris; settings: antifungal drugs; for MIC: Candidozyma auris, CA10, geometric mean
How it was run: as §1

C. auris Ca 45 = assay: MIC, CLSI M27 broth microdilution; assay type: cell-based, Candida auris; settings: C. auris Ca 45; for MIC Range / MIC: antifungal drugs; for MIC: Candidozyma auris, CA45, geometric mean, read-out: MIC GM
How it was run: as §1

[3] = tested on: C. metapsilosis MUM 15.12; assay: MIC, CLSI M27 broth microdilution; assay type: cell-based, Candida metapsilosis; settings: C. metapsilosis MUM 15.12, antifungal drugs; for MIC: Lodderomyces metapsilosis, MUM15.12, geometric mean, read-out: MIC GM
How it was run: as §1

[4] = tested on: C. parapsilosis Synlab 406; assay: MIC, CLSI M27 broth microdilution; assay type: cell-based, Candida parapsilosis; settings: C. parapsilosis Synlab 406; for MIC Range / MIC: antifungal drugs; for MIC: Lodderomyces parapsilosis, SYNLAB406, geometric mean, read-out: MIC GM
How it was run: as §1

[5] = tested on: C. parapsilosis ATCC 22019; assay: MIC, CLSI M27 broth microdilution; assay type: cell-based, Candida parapsilosis; settings: antifungal drugs; for MIC: Lodderomyces parapsilosis, ATCC22019, geometric mean
How it was run: as §1

C. krusei ATCC 6258 = assay: MIC, CLSI M27 broth microdilution; assay type: cell-based, Candida krusei; settings: C. krusei ATCC 6258, antifungal drugs; for MIC: Pichia kudriavzevii, ATCC6258, geometric mean, read-out: MIC GM
How it was run: as §1

Structure (SMILES)	MIC Range [1] [µg/mL]	MIC [1] [µg/mL]	effect in time–kill assay (control drugs) [2]	MIC Range (C. lusitaniae MUM 17.08) [µg/mL]	MIC (C. lusitaniae MUM 17.08) [µg/mL]	MIC (C. albicans ATCC 10231) [µg/mL]	MIC Range (C. albicans ATCC 10231) [µg/mL]	MIC Range (C. auris Ca 32) [µg/mL]	MIC (C. auris Ca 32) [µg/mL]	MIC Range (C. auris Ca 46) [µg/mL]	MIC (C. auris Ca 46) [µg/mL]	MIC Range (C. auris CDC B11903) [µg/mL]	MIC (C. auris CDC B11903) [µg/mL]	MIC Range (C. auris Ca 17) [µg/mL]	MIC (C. auris Ca 17) [µg/mL]	MIC Range (C. auris Ca 9) [µg/mL]	MIC (C. auris Ca 9) [µg/mL]	MIC Range (C. auris Ca 41) [µg/mL]	MIC (C. auris Ca 41) [µg/mL]	MIC Range (C. auris Ca 1) [µg/mL]	further results
C[C@@H]1[C@H](O)[C@@H](C)/C=C/C=C/C=C/C=C/C=C/C=C/C=C/[C@H](O[C@@H]2O[C@H](C)[C@@H](O)[C@H](N)[C@@H]2O)C[C@@H]2O[C@](O)(C[C@@H](O)C[C@@H](O)[C@H](O)CC[C@@H](O)C[C@@H](O)CC(=O)O[C@H]1C)C[C@H](O)[C@H]2C(=O)O [AMB, amphotericin B]	<0.03	< 0.03	fungicidal	0.03 (≈ 0.0325 µM)	0.03 (≈ 0.0325 µM)	0.04 (≈ 0.0433 µM)	0.03 to 0.12	0.12 to 0.5	0.19 (≈ 0.206 µM)	1 to 2	1.4 (≈ 1.52 µM)	0.06 to 0.12	0.07 (≈ 0.0758 µM)	0.06 to 0.25	0.15 (≈ 0.162 µM)	0.12 to 0.5	0.25 (≈ 0.271 µM)	1 (≈ 1.08 µM)	1 (≈ 1.08 µM)	0.12 to 0.25	susceptibility category (C. auris Ca 46; CDC breakpoints): AMB-resistant; susceptibility category (C. auris Ca 41; CDC breakpoints): AMB-resistant; MIC (C. auris Ca 1): 0.2 µg/mL (≈ 0.216 µM); MIC (C. auris Ca 10): 0.18 µg/mL (≈ 0.195 µM); MIC Range (C. auris Ca 10): 0.12 to 0.25 µg/mL; susceptibility category (C. auris Ca 45; CDC breakpoints): AMB-resistant; MIC Range (C. auris Ca 45): 1 to 2 µg/mL; MIC (C. auris Ca 45): 1.41 µg/mL (≈ 1.53 µM); MIC Range [3]: <0.03 µg/mL; MIC [3]: < 0.03 µg/mL; MIC Range [4]: 0.06 to 0.25 µg/mL; MIC [4]: 0.15 µg/mL (≈ 0.162 µM); MIC [5]: 0.06 µg/mL (≈ 0.0649 µM); MIC Range [5]: 0.06 µg/mL (≈ 0.0649 µM); MIC Range (C. krusei ATCC 6258): 0.12 to 0.25 µg/mL; MIC (C. krusei ATCC 6258): 0.15 µg/mL (≈ 0.162 µM)
OC(Cn1cncn1)(Cn1cncn1)c1ccc(F)cc1F [FLC, fluconazole]	1 (≈ 3.27 µM)	1 (≈ 3.27 µM)	fungistatic	0.5 (≈ 1.63 µM)	0.5 (≈ 1.63 µM)	4 (≈ 13.1 µM)	4 (≈ 13.1 µM)	8 to 16	11.3 (≈ 36.9 µM)	2 to 4	2.8 (≈ 9.14 µM)	1 to 2	1.4 (≈ 4.57 µM)	32 (≈ 104 µM)	32 (≈ 104 µM)	4 (≈ 13.1 µM)	4 (≈ 13.1 µM)	2 (≈ 6.53 µM)	2 (≈ 6.53 µM)	4 (≈ 13.1 µM)	susceptibility category (C. auris Ca 17; CDC breakpoints): FLC-resistant; MIC (C. auris Ca 1): 4 µg/mL (≈ 13.1 µM); MIC (C. auris Ca 10): 4 µg/mL (≈ 13.1 µM); MIC Range (C. auris Ca 10): 4 µg/mL (≈ 13.1 µM); MIC Range (C. auris Ca 45): 2 µg/mL (≈ 6.53 µM); MIC (C. auris Ca 45): 2 µg/mL (≈ 6.53 µM); MIC Range [3]: 1 to 2 µg/mL; MIC [3]: 1.4 µg/mL (≈ 4.57 µM); MIC Range [4]: 8 to 16 µg/mL; susceptibility category ([4]; resistance confirmed): resistance; MIC [4]: 11.3 µg/mL (≈ 36.9 µM); MIC [5]: 0.7 µg/mL (≈ 2.29 µM); MIC Range [5]: 0.5 to 1 µg/mL; MIC Range (C. krusei ATCC 6258): 8 µg/mL (≈ 26.1 µM); MIC (C. krusei ATCC 6258): 8 µg/mL (≈ 26.1 µM)
